Laboratory results: ChEMBL document CHEMBL2390872, “Synthesis and biological evaluation of Esaprazole analogues showing σ1 binding and neuroprotective properties in vitro” (Bioorg Med Chem, 2013)

assay: in vivo; settings: rat, brain/plasma, po, 1600 mg/kg

Row | Kp at 2 h | SMILES
1 | 0.25 | O=C(CN1CCNCC1)NC1CCCCC1 [ESAPRAZOLE]

assay: in vitro; settings: rat, liver microsomes

Row | SMILES | half-life [min]
2 | O=C(CCN1CCN(C(=O)C2CC2)CC1)NC1CCCCC1 | > 60
3 | O=C(CCN1C[C@@H]2C[C@H]1CN2)NC1CCCCC1 | 45
4 | O=C(CN1CCNCC1)NC1CCCCC1 [ESAPRAZOLE] | > 60
5 | CCN1CCN(CC(=O)N(C)C2CCCC2)CC1C (racemic) | 21
6 | CC(C)(C)CCNC(=O)CN1CCN(C(=O)C2CCCCC2)CC1 | 21

Further lines, results first:

Row | half-life [min] | SMILES
7 | 4.2 | O=C(CN1CCN2CCC[C@H]2C1)NC1CCCCC1
8 | 8.2 | O=C(CN1CCN2CCC[C@@H]2C1)NC1CCCCC1
